Data set [1] is described as follows: Metabolic stability in human liver microsome. Particulars: liver microsomes, NADPH, 60 min, read-out: Human liver microsome (t1/2, min). It counts as in vitro ADME. On the procedure: Clean incubation plates T60 and NCF60 were preheated at 37° C. for 10 min. Liver microsomes were diluted to a concentration of 0.56 mg/mL with 100 mM phosphate buffer, and 445 μL of the microsome working solution (0.56 mg/mL) was transferred to the preheated incubation plates T60 and NCF60, followed by incubation of the plates T60 and NCF60 with continuous shaking at 37° C. for 10 min. After incubation, 54 μL of liver microsomes were transferred to a blank plate, 6 μL of NAPDH cofactor was added to the blank plate, and then 180 μL of quenching solution was added to the blank plate. 5 μL of the compound working solution (100 μM) was added to the microsome-containing incubation plates T60 and NCF60, and mixed thoroughly 3 times. For plate NCF60, 50 μL of buffer was added and the system was mixed thoroughly 3 times before timing was started, and the plate was incubated with shaking at 37° C. for 60 min. For the quenching plate, 180 μL of quenching solution and 6 μL of NADPH cofactor were added, and the plate was ensured to be cooled to prevent evaporation. For the T60 plate, the mixture was thoroughly mixed 3 times, and 54 μL of the mixture was immediately transferred to the quenching plate at the time point of 0 min. Then 44 μL of the NAPDH cofactor was added to the incubation plate (T60). Timing was started, and the plate was incubated with shaking at 37° C. for 60 min. At the time points of 5, 15, 30, 45, and 60 min, 180 μL of the quenching solution was added to the quenching plate respectively, mixed once, and 60 μL of sample was continuously transferred from the plate T60 to the quenching plate at each time point. For plate NCF60, after mixing once, 60 μL of the sample was transferred from incubation plate NCF60 to the quenching plate containing quenching solution at the 60-min time point. All sampling plates were shaken for 10 min, then centrifuged at 4000 rpm at 4° C. for 20 min. 80 μL of the supernatant was transferred to 240 μL of HPLC water, and mixed using a plate shaker for 10 min. Each bioanalytical plate was sealed and shaken for 10 min before LC-MS/MS analysis.
A general note: Liver microsomes are a subcellular fraction often used to study metabolism.

Data set [2] in a line: Pharmacokinetic experiment on SD rats (iv and intragastric). Format: in vivo. The settings on record: Sprague-Dawley, rat, plasma; for Cmax: read-out: Peak plasma concentration Cmax. On the procedure:
Pharmacokinetic experiment on SD rats: in this experiment, two administration modes: oral intragastric administration and tail vein injection were selected. Oral administration was performed at a dose of 5 mg/kg using the compounds of the present disclosure. The administration volume was 10 mL/kg. Prior to use, an appropriate amount of the drug was accurately weighed and first dissolved in dimethyl sulfoxide (DMSO). An appropriate amount of Solutol and H2O were then added in sequence at a final volume ratio of 5% DMSO, 10% Solutol and 85% H2O. The mixture was sonicated and vortexed to homogeneity to prepare a clear drug solution with a concentration of 0.5 mg/mL. Intravenous administration was performed at a dose of 1 mg/kg using the compounds of the present disclosure. The administration volume was 10 mL/kg. Prior to use, an appropriate amount of each drug was accurately weighed separately, followed by the sequential addition of a suitable volume of PEG 400 and Saline at a final volume ratio of 20% PEG 400 to 80% Saline. The mixture was sonicated and vortexed to homogeneity to prepare a clear drug solution with a concentration of 0.1 mg/mL.
6 SD rats, each with body weight of 180-220 g, were randomly grouped into 2 groups. The animals were fasted overnight with free access to water. For the first group, intragastric administration was performed, and 200 μL of blood was collected from the orbital venous plexus into anticoagulant tubes at 15 min, 30 min, 1 h, 2 h, 4 h, 6 h, 8 h and 24 h post-administration, respectively. Within one hour, the blood samples were centrifuged at 10000 rpm for 20 m at 4° C. (preserved on an ice box prior to centrifugation). The upper supernatant, i.e., plasma, was harvested and stored in a refrigerator at −20° C. for subsequent LC-MS/MS analysis. For the second group, intravenous administration was conducted, and 200 μL of blood was collected from the orbital venous plexus into anticoagulant tubes at 5 min, 15 min, 30 min, 1 h, 2 h, 4 h, 8 h and 24 h post-administration, respectively. Within one hour, the blood samples were centrifuged at 10000 rpm for 20 min at […] (preserved on an ice box prior to centrifugation). The upper supernatant, i.e., plasma, was harvested and stored in a refrigerator at −20° C. for subsequent LC-MS/MS analysis.

Data set [3] relates to DSS-induced enteritis model. Briefly: DSS-induced enteritis (colitis) model. Format: in vivo, mice. The settings on record: po, QD, Model 10.33 ± 1.11, Mean ± SD, n = 7. An excerpt: The experimental mice were pre-acclimatized in the animal facility for one week; at the beginning of the experiment, the mice were given medication intragastrically daily according to their body weight. After the completion of intragastric administration in each group, mice had direct access to water bottles for free drinking. The blank group received normal water, while the other groups received pre-prepared DSS water. Each afternoon, the mice's abdomens were massaged to stimulate defecation, and one fecal pellet was collected onto a white porcelain plate. Fecal consistency was judged and recorded according to Table 30. The fecal occult blood qualitative test kit (Yuanye Biotechnology, #R24187-300T) was used to test for occult blood in feces and the results were interpreted according to Table 31.

Like-named read-outs stand apart in the source and are kept apart here.

The text below walks through data of patent US20260216348A1, “IRAK DEGRADATION AGENT AND USE THEREOF” (Increland, priority 2023, published 2026).

`CN(C)c1cc2nn([C@H]3CC[C@H](CN4CC[C@@H](n5cc6cc(C7CCC(=O)NC7=O)c(F)cc6n5)[C@@H](F)C4)CC3)cc2cc1NC(=O)c1cnn2cccnc12` (stereo partly shown) [TM-135]: in data set [1], the half-life at 1 µM was 65 min. For the same compound, in data set [2] (iv, 1.00 mg/kg), the AUC (commonly concentration integrated over time) is 1170 ± 260 ng·h/mL, the AUC(0-inf) (usually the area under the concentration-time curve extrapolated to infinity) was 1220 ± 333 ng·h/mL and the Cmax came out at 790 ± 65.9 ng/mL. In addition, the bioavailability – broadly, dose-corrected exposure relative to a reference, in per cent – in data set [2] (po, ig 5.00 mg/kg vs iv 1.00 mg/kg, read-out: Oral bioavailability Fobs) came to 33.2%. In addition, in data set [2] (po, ig, 5.00 mg/kg), the exposure (AUC) worked out at 1900 ± 565 ng·h/mL, the AUC(0-inf) came out at 2030 ± 529 ng·h/mL and the Cmax was determined as 433 ± 198 ng/mL.
On to `CN(C)c1cc2nn([C@H]3CC[C@H](CN4CCC(n5cc6c(F)cc(N7CCC(=O)NC7=O)cc6n5)CC4)CC3)cc2cc1NC(=O)c1cnn2cccnc12` [TM-174], for which the “DAI Score d 8” value in data set [3] (3 mpk) is listed as 3.57 ± 2.26; in data set [3] (10 mpk) it was 2.71 ± 1.39; in data set [3] (30 mpk) it was 2.71 ± 0.70. In addition, the AUC in data set [2] (iv, 1.00 mg/kg) came out at 1480 ± 167 ng·h/mL. The AUC(0-inf) in data set [2] (iv, 1.00 mg/kg) turned out to be 1700 ± 254 ng·h/mL. Besides, in data set [2] (iv, 1.00 mg/kg), the Cmax was determined as 272 ± 34.5 ng/mL.
`CN(C)c1cc2nn([C@H]3CC[C@H](CN4C[C@@H](n5cc6cc(N7CCC(=O)NC7=O)ccc6n5)[C@@H](F)C4)CC3)cc2cc1NC(=O)c1cnn2cccnc12` [TM-205]: the “DAI Score d 8” value in data set [3] (3 mpk) was 4.86 ± 1.55; in data set [3] (10 mpk) it was 3.29 ± 1.67; in data set [3] (30 mpk), 2.71 ± 0.70.
With `CN(C)c1cc2nn([C@H]3CC[C@H](CN4C[C@@H](F)[C@@H](n5cc6cc(C7CCC(=O)NC7=O)c(F)cc6n5)C4)CC3)cc2cc1NC(=O)c1cnn2cccnc12` (stereo partly shown) [TM-240], in data set [1], the half-life at 1 µM is 98.6 min. In data set [2] (iv, 1.00 mg/kg), the AUC amounted to 2630 ± 172 ng·h/mL, the AUC(0-inf) stood at 2670 ± 175 ng·h/mL and the Cmax is 652 ± 32 ng/mL.
As to `CN(C)c1cc2nn([C@H]3CC[C@H](CN4C[C@@H](n5cc6cc(C7CCC(=O)NC7=O)c(F)cc6n5)[C@@H](F)C4)CC3)cc2cc1NC(=O)c1cnn2cccnc12` (stereo partly shown) [TM-241], the half-life at 1 µM in data set [1] came to 106 min. Moreover, in data set [2] (iv, 1.00 mg/kg), the AUC was determined as 4140 ± 1290 ng·h/mL, the AUC(0-inf) was determined as 4220 ± 1300 ng·h/mL and the Cmax was found to be 920 ± 124 ng/mL.
Consider `CN(C)c1cc2nn([C@H]3CC[C@H](CN4C[C@@H](F)[C@H](n5cc6cc(C7CCC(=O)NC7=O)ccc6n5)C4)CC3)cc2cc1NC(=O)c1cnn2cccnc12` (stereo partly shown) [TM-244], for which the half-life at 1 µM in data set [1] is 79.5 min. In data set [2] (iv, 1.00 mg/kg), the AUC turned out to be 2010 ± 361 ng·h/mL, the AUC(0-inf) was determined as 2440 ± 585 ng·h/mL and the Cmax amounted to 784 ± 126 ng/mL.
For `CN(C)c1cc2nn([C@H]3CC[C@H](CN4C[C@@H](F)[C@H](n5cc6cc(C7CCC(=O)NC7=O)c(F)cc6n5)C4)CC3)cc2cc1NC(=O)c1cnn2cccnc12` (stereo partly shown) [TM-245], the half-life at 1 µM in data set [1] is 87.4 min. Also, in data set [2] (iv, 1.00 mg/kg), the AUC was 2910 ± 62.8 ng·h/mL, the AUC(0-inf) amounted to 2980 ± 114 ng·h/mL and the Cmax was determined as 554 ± 60.7 ng/mL.
In the case of `CN(C)c1cc2nn([C@H]3CC[C@H](CN4C[C@H](F)[C@@H](n5cc6cc(C7CCC(=O)NC7=O)c(F)cc6n5)C4)CC3)cc2cc1NC(=O)c1cnn2cccnc12` (stereo partly shown) [TM-249], in data set [1], the half-life at 1 µM stood at 139 min. In data set [2] (iv, 1.00 mg/kg), the AUC worked out at 2280 ± 190 ng·h/mL, the AUC(0-inf) was 2400 ± 354 ng·h/mL and the Cmax turned out to be 613 ± 39.8 ng/mL.
